Consider seven compounds from US8008007B2, “S-adenosyl-L-methionine analogs with extended activated groups for transfer by methyltransferases” (RWTH Aachen, priority 2005, dated 2011).

Type in all cases: biochemical
Test [1] addresses T1, M.TaqI (Thermus aquaticus, UniProt P14385).
T1 construct: made in house
As to the kind of experiment: Modification of adenine-N6 in duplex oligodeoxynucleotide I.II by M.TaqI, nucleoside analysis by HPLC/ESI-MS. Conditions: 37° C. over night, near-stoichiometric enzyme. An excerpt: Transfer of the activated ethyl (CH2CH3), propyl (CH2CH2CH3), prop-2-enyl (CH2CHCH2), prop-2-ynyl group (CH2CCH), but-2-ynyl (CH2CCCH3), pent-2-ynyl (CH2CCCH2CH3) or benzyl group (CH2C6H5) from cofactors 3-9 by the DNA adenine-N6 methyltransferase M.TaqI, the DNA cytosine-C5 methyltransferase M.HhaI variant Q82A or the DNA cytosine-N4 methyltransferase M.BcnIB to DNA was first investigated using short duplex oligodeoxynucleotides as substrates. After enzymatic transfer the duplex oligodeoxynucleotides were enzymatically fragmented and the resulting modified nucleosides were analyzed by reversed-phase HPLC coupled with ESI-MS.
M.TaqI was denatured by heating to 95° C. for 10 min and removed by centrifugation ([…], 2 min). The modified duplex oligodeoxynucleotides I^Z—R-II were desalted by gel filtration (NAP-5 column, Amersham Biosciences, Freiburg, Germany), eluted with water (1 mL) and lyophilized.
The modified duplex oligodeoxynucleotides I^Z—R-II were dissolved in buffer (100 μL, 10 mM Tris hydrochloride, 10 mM magnesium chloride, 1 mM zinc acetate, pH 7.5) containing Nuclease PI (1500 u, Sigma, Taufkirchen, Germany) and calf intestine alkaline phosphatase (30 u, MBI Fermentas, St. Leon-Rot, Germany) and incubated at 37° C. for 4 h. Nucleosides were analyzed by reversed-phase HPLC (Symmetry-C18 5 μm, 100 Å, 250×4.6 mm, equipped with a Symmetry-C18 5 μm, 100 Å, 20×4.6 mm pre-column, Waters, Eschborn, Germany). Compounds were eluted with acetonitrile (5% for 7 min, followed by linear gradients to 6% in 15 min, to 35% in 8 min and to 70% in 2 min) in triethylammonium acetate buffer (10 mM, pH 7.0) at a flow of 1 mL/min and detected at 254 nm.
For HPLC-coupled ESI-MS measurements compounds were eluted with methanol (0% for 3 min, followed by a linear gradient to 100% in 22 min) in ammonium formate buffer (20 mM, pH 3.5). A post-column mobile phase modification (equal co-flow of 96% methanol, 4% formic acid) was used to enhance the detection efficiency of 2′-deoxyadenosine and its derivatives. Mass spectra were recorded in 200-370 m/z range.
The hemimethylated duplex oligodeoxynucleotide I.II (compare Scheme 5, Example 2A) was produced by mixing equal molar amounts of complementary single-stranded oligodeoxynucleotide I (5′-GCCGCTCGATGCCG-3′) (SEQ. ID NO. 1) and II (5′-CGGCATCGA^MeGCGGC-3′, A^Me=N6-methyl-2′-deoxyadenosine) (SEQ ID NO. 2) in water, heating at 85° C. for 5 min and slow cooling to room temperature. […] The solution was heated to 95° C. for 10 min, supplemented with Proteinase K and incubated at 55° C. for 2 h. Hydrolysis products were removed by gel filtration (G-25 column, Amersham Biosciences).
The obtained solution was treated with buffer ( 1/10 volume, 100 mM Tris hydrochlorid, 100 mM magnesium chloride, 10 mM zinc acetate, pH 7.5) containing Nuclease P1 (1.14 u, Sigma, Taufkirchen, Germany) and calf intestine alkaline phosphatase (18 u, MBI Fermentas), incubated at 42° C. for 4 h and passed through a Microcon YM-3 spin column (Amicon). Nucleosides were analyzed by reversed-phase HPLC (Discovery HS C18 75×2.1 mm, 3 μm, equipped with a Supelguard Discovery HS C18 20×2.1 mm, 5 μm, pre-column, Supelco, Germany) coupled with a mass spectrometric detector (HP 1100 series ESI-MS equipped with single quadruple). Compounds were eluted with methanol (0% for 3 min, followed by linear gradients to 20% in 15 min and to 80% in 2 min) in ammonium formate buffer (20 mM, pH 3.5) at a flow of 0.3 mL/min. For on-line mass spectrometric detection post-column mobile phase modification (equal co-flow of 96% methanol, 4% formic acid and 1 mM sodium hydroxide) was used to enhance the detection efficiency of 2′-deoxyadenosine, 2′-deoxycytidine and their derivatives. Mass spectra were recorded in 50-600 m/z range.

The subject of test [2] is M.BcnIB. As to the kind of experiment: DNA protection assay with M.BcnIB (wild-type) on phage lambda DNA. The note with it: 1.10 μg phage lambda DNA, cofactor 300 μM, 37° C. for 4 h, then R.BcnI; pH 7.4 (pH 6.0 for cofactor 6). An excerpt: (§1) Transfer kinetics of the activated ethyl (—CH2CH3), propyl (—CH2CH2CH3), prop-2-enyl (—CH2CH═CH2), prop-2-ynyl (—CH2C≡CH), but-2-ynyl (—CH2C≡CCH3), pent-2-ynyl (—CH2C≡CCH2CH3) and benzyl group (—CH2C6H5) from cofactors 3-9 by the DNA adenine-N6 methyltransferase M.TaqI and its variant V21 G, the DNA cytosine-C5 methyltransferase M.HhaI and its variant Q82A, the DNA cytosine-N4 methyltransferase M.BcnIB and the DNA cytosine-C5 methyltransferase M.SssI variant Q142A to phage lambda DNA (48502 base pairs) were investigated using a DNA protection assay. This assay makes use of the fact that DNA methyltransferase-catalyzed modifications of nucleobases within the recognition sequences of restriction endonucleases can protect the DNA against fragmentation by these enzymes. […] Unmodified DNA containing 5′-TCGA-3′ recognition sequences is readily fragmentated by R.TaqI. After DNA modification by M.TaqI in the presence of a cofactor with an activated group Z—R modified 5′-TCGA^Z—R-3′ sequences are formed and, as a result, R.TaqI is unable to fragment the modified DNA. Occurrence of fragmentation is then analyzed by agarose gel electrophoresis.
(§2) By varying the amounts of DNA methyltransferase, this assay is used to investigate the enzymatic activities of the different DNA methyltransferases with cofactors 3-9 and compare them to the enzymatic activities with the natural cofactor 1. The minimal amount of DNA methyltransferase needed to fully protect 1 μg of phage lambda DNA against restriction endonuclease fragmentation under the given experimental conditions is defined as one enzyme unit (u).
Afterwards the reactions were stopped by heating to 80° C. for 10 min. A solution (10 μL) containing R.BcnI restriction endonuclease (12 u, MBI Fermentas), bovine serum albumin (0.1 mg/mL) and buffer (33 mM Tris acetate, 66 mM potassium acetate, 26.5 mM magnesium chloride, pH 7.9) was added to each dilution and incubation at 37° C. was continued for 1 h. […] Parallel control experiments were performed with phage lambda DNA in the absence of M.BcnIB and in the presence of M.BcnIB (144 ng).

Test [3] deals with T2, M.HhaI (Haemophilus parahaemolyticus, UniProt P05102).
T2 construct: made in house
T2 sequence (P05102 whole entry): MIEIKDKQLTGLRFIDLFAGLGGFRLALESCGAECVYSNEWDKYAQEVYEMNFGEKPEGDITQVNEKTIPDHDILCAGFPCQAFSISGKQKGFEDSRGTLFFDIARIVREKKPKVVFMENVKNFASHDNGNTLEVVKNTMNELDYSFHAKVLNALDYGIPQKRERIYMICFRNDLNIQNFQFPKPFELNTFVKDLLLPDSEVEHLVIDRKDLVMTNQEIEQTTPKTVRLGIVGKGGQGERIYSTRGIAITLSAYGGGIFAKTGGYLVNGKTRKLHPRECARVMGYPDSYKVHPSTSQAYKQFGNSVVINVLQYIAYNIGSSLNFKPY
As to the kind of experiment: DNA protection assay with M.HhaI (wild-type) on phage lambda DNA. Conditions: 1.16 μg phage lambda DNA, cofactor 300 μM, 37° C. for 4 h, then R.Hin6I; pH 7.4 (pH 6.0 for cofactor 6).
Source text: as §1, §2
Afterwards, the reactions were stopped by heating to 80° C. for 10 min. […] Parallel control experiments were performed with phage lambda DNA in the absence of M.HhaI and in the presence of M.HhaI (278 ng).

T1 sequence (P14385 whole entry): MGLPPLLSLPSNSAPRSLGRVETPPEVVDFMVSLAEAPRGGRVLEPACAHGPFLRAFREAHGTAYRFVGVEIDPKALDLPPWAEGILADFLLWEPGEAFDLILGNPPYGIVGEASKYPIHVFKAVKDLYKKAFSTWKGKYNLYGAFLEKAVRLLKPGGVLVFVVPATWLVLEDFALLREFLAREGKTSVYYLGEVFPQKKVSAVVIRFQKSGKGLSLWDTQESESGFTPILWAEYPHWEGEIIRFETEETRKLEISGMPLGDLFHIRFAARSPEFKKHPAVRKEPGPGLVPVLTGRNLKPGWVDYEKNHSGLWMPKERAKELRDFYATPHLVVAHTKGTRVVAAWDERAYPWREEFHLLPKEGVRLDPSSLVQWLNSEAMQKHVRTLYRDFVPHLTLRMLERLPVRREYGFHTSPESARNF

Take `CC[S+](CCC(N)C(=O)O)CC1OC(n2cnc3c(N)ncnc32)C(O)C1O` (stereo not shown) [Cofactor 3]: in test [1], the “cofactor function for M.TaqI (transfer of group Z-R to adenine-N6)” value (“cofactor function for M.TaqI” below) was “functions as a cofactor”. For the compound `C#CC[S+](CCC(N)C(=O)O)CC1OC(n2cnc3c(N)ncnc32)C(O)C1O` (stereo not shown) [Cofactor 6], the “cofactor function for M.TaqI” value in test [1] is recorded as “functions as a cofactor”. The “specific activity of M.BcnIB with the cofactor” value (“specific activity of M.BcnIB” below) in test [2] stood at 0 u/μg. Take `CC#CC[S+](CCC(N)C(=O)O)CC1OC(n2cnc3c(N)ncnc32)C(O)C1O` (mixture of isomers) [Cofactor 7]: in test [1], the “cofactor function for M.TaqI” value was “functions as a cofactor”. In addition, the “specific activity of M.HhaI with the cofactor” value (“specific activity of M.HhaI” below) in test [3] is 29 u/μg. For the same compound, in test [2], the “specific activity of M.BcnIB” value was 28 u/μg.

On to `NCCCC(=O)NCC#CC[S+](CCC(N)C(=O)O)CC1OC(n2cnc3c(N)ncnc32)C(O)C1O` (stereo not shown) [Cofactor 10], for which the “cofactor function for M.TaqI” value in test [1] is reported as “functions as a cofactor”. As to `C=CC[S+](CCC(N)C(=O)O)CC1OC(n2cnc3c(N)ncnc32)C(O)C1O` (stereo not shown) [Cofactor 5], the “cofactor function for M.TaqI” value in test [1] is given as “functions as a cofactor”. Also, the “specific activity of M.HhaI” value in test [3] was 7 u/μg. As for `CCC[S+](CCC(N)C(=O)O)CC1OC(n2cnc3c(N)ncnc32)C(O)C1O` (stereo not shown) [Cofactor 4], the “cofactor function for M.TaqI” value in test [1] was “functions as a cofactor”. Also, in test [3], the “specific activity of M.HhaI” value is on record as 0 u/μg. As to `CCC#CC[S+](CCC(N)C(=O)O)CC1OC(n2cnc3c(N)ncnc32)C(O)C1O` (stereo not shown) [Cofactor 8], the “cofactor function for M.TaqI” value in test [1] is reported as “functions as a cofactor”. In addition, in test [2], the “specific activity of M.BcnIB” value turned out to be 14 u/μg.
